From PubChem BioAssay AID1996
In brackets after ≈: the same amount, converted by molar mass.

Details: buffer; pH 7.4; 200.0 µM

| Compound | solubility kinetic [µg/mL] |
| --- | --- |
| O=c1[nH]c(=S)n(Cc2ccc(F)cc2)c(O)c1C=NCc1ccc2c(c1)OCO2 | 0.4 (≈ 0.968 µM) |
| CN(CC(=O)Nc1c(Cl)cccc1Cl)C(=O)CCC1CCCC1 | 53.4 (≈ 149 µM) |
| Cc1ccc(NC(=O)/C=C2\NC(=O)CS2)cc1 | 4.1 (≈ 16.5 µM) |
| O=C(O)CC1(CC(=O)Nc2ccc(F)c(Cl)c2)CCCCC1 | > 49.2 |
| N/C(=N\OC(=O)C(c1ccccc1)c1ccccc1)c1ccncc1 | 47.5 (≈ 143 µM) |
| CN(C(=O)COc1ccc(Cl)cc1)C1(C)CCS(=O)(=O)C1 (stereo not given) | > 49.8 |
| Cc1ccc2c(c1)Cc1nc3ccccc3nc1-2 | 1.9 (≈ 8.18 µM) |
| Cc1cnc(C(=O)OCC(=O)c2ccc(C)s2)cn1 | 41.1 (≈ 149 µM) |
| COc1ccccc1N1CCN(c2nccc(C)n2)CC1 | 40.3 (≈ 142 µM) |
| CN=C1S/C(=C\c2ccc(O)c(OC)c2)C(=O)N1C | 5.9 (≈ 21.2 µM) |
| CC1CCN(C(=O)c2cc3ccccc3cc2O)CC1 | > 40.4 |
| O=C(O)c1ccc(Nc2nc(-c3cccnc3)cs2)cc1 | > 44.6 |
| COc1ccc(-c2c(NCCc3ccccc3)c(=O)c2=O)cc1 | 1 (≈ 3.25 µM) |
| CSc1ccc(C(=O)NCC(c2ccco2)N(C)C)cc1[N+](=O)[O-] (stereo not given) | > 52.4 |
| O=C(Nc1cccc(C(F)(F)F)c1)OCc1ccncc1 | 12.4 (≈ 41.9 µM) |
| Cc1cc(NC(=O)c2ccc([N+](=O)[O-])cc2Cl)no1 | 16.3 (≈ 57.9 µM) |
| Cc1nccn1-c1ccc(C=O)cc1 | 27.6 (≈ 148 µM) |
| CC1CN(C(=O)COC(=O)Cc2c(Cl)cccc2Cl)CC(C)O1 (stereo not given) | > 54 |
| Clc1ccc(C2CSc3c4ncnc-4ncn32)cc1 (stereo not given) | 33.9 (≈ 117 µM) |
| Cc1cc(F)ccc1S(=O)(=O)N(CC(=O)N1CCOCC1)CC(=O)N1CCOCC1 | > 66.5 |
| CC(C)(C)C(=O)NCCCNc1ccc([N+](=O)[O-])cc1 | 38.3 (≈ 137 µM) |
| Cn1c(=O)c(C(=O)NC2CCCCCC2)c(O)c2ccccc21 | < 0.3 |
| CC(=O)c1cccc(NC(=S)Nc2ccc(F)cc2)c1 | 30.3 (≈ 105 µM) |
| O=C(CSc1cccc[n+]1[O-])NC1CCCCCCC1 | 39.3 (≈ 133 µM) |

| Compound | solubility kinetic [µg/mL] |
| --- | --- |
| COc1cc(/C=C/C(=O)O)cc(S(=O)(=O)N2CCCc3ccccc32)c1OC | 45.3 (≈ 112 µM) |
| NC(=O)/C(=C\c1ccco1)NC(=O)c1ccc(Br)o1 | 42.9 (≈ 132 µM) |
| O=C(O)CCNC(=S)Nc1cccc(F)c1 | > 36.3 |
| CCOCCCNC(=S)N1CCC(C(=O)c2ccc(C)cc2)CC1 | 51.8 (≈ 149 µM) |
| COc1ccc(CNC(=S)Nc2ccccc2)cc1Cl | 31.7 (≈ 103 µM) |
| CCN(CC)S(=O)(=O)c1cccc(C(=O)NC(C(=O)NCCc2ccccn2)C(C)C)c1 (stereo not given) | > 69.1 |
| CCN(Cc1ccccc1)C(=O)CN1C(=O)c2ccccc2C1=O | > 48.4 |
| O=C(O)c1cccc(S(=O)(=O)NCC2COc3ccccc3O2)c1 (stereo not given) | > 52.4 |
| O=C(OCC(=O)N1CCCC1=O)c1cccc([N+](=O)[O-])c1 | > 43.8 |
| Cn1c(O)c(C=Nc2ccc(Br)cc2)c(=O)n(C)c1=O | 1.2 (≈ 3.55 µM) |
| CN(C(=O)c1cncc(Br)c1)C1C2CC3CC(C2)CC1C3 (stereo not given) | 48.1 (≈ 138 µM) |
| Cc1cc(C)c(NC(=O)C2CC(=O)N(C3CCCC3)C2)c(C)c1 (stereo not given) | > 47.2 |
| Cc1[nH]c2ccccc2c1C(=O)C(C)OC(=O)C1CCC1 (stereo not given) | > 42.8 |
| O=C(N/C=C/c1ccco1)Nc1cccc(Cl)c1 | 31.3 (≈ 119 µM) |
| COC1(NC(=O)c2ccccc2)C(C)=CC(=O)C=C1C | 40 (≈ 147 µM) |
| CC(=O)Nc1ccc(S(=O)(=O)N2CCCC2)cc1 | > 40.2 |
| CCC(Oc1cccc(Cl)c1)C(=O)N1CCCN(C)CC1 (stereo not given) | > 46.6 |
| Cl.NCc1cc2c3c(c1)CCCN3CCC2 | > 41.3 |
| Cc1nn(C)c2ncc(C(N)=O)c(Oc3cccnc3)c12 | > 42.5 |
| CC(C)c1ccc(NC2CCCN(C(=O)c3cccnc3)C2)cc1 (stereo not given) | > 48.5 |
| COc1ccc(NC(=O)c2cc(C)nc3ccccc23)c(OC)c1 | > 48.4 |
| Cc1nonc1NC(=O)CSc1nc2ccc(Cl)cc2[nH]1 | 36.4 (≈ 112 µM) |
| CC(=O)N1Cc2[nH]c3ccccc3c2CC1C(=O)O (stereo not given) | > 38.7 |
| O=C(CN1CCOCC1)Nc1nc(-c2ccc(Cl)cc2)cs1 | > 50.7 |

| Compound | solubility kinetic [µg/mL] |
| --- | --- |
| O=[N+]([O-])c1ccccc1-c1ccc(C(=S)N2CCCC2)o1 | 9.4 (≈ 31.1 µM) |
| CC(C)(C)C1CCC(C(=O)Nc2nccs2)CC1 (stereo not given) | 0.3 (≈ 1.13 µM) |
| OCCC1CN(Cc2ccc3c(c2)CCO3)CCN1C1CCCC1 (stereo not given) | 45.2 (≈ 137 µM) |
| CCCCCCCCn1c(=O)c(C(=O)OC)c(N)c2ccccc21 | 0.9 (≈ 2.72 µM) |
| O=C(Nc1cccc(F)c1)C1CCCN(c2cnccn2)C1 (stereo not given) | > 45.1 |
| O=C(NCc1cccnc1)Nc1ccc(Br)cc1 | > 45.9 |
| Cc1ccc2ncnc(Nc3ccccc3)c2c1 | 11.6 (≈ 49.3 µM) |
| Cc1cccc(NC(=O)CCC(=O)N2CCOCC2)n1 | > 41.6 |
| O=S(=O)(Cc1ccccc1)Nc1cccc(F)c1 | 37.6 (≈ 142 µM) |
| CC(C)S(=O)(=O)c1cnc(N2CCOCC2)nc1N | > 43 |
| O=C(CCn1c(=O)oc2cc(Cl)ccc21)Nc1ccc(O)cc1 | > 49.9 |
| CC(OC(=O)c1ccc2ncsc2c1)C(=O)N1CCCC1 (stereo not given) | 39.4 (≈ 129 µM) |
| CCCCc1cc(=O)oc2cc(OCC(=O)N3CCOCC3)ccc12 | 19.2 (≈ 55.6 µM) |
| COc1ccccc1Nc1nc(C)nc2c1oc1ccccc12.Cl | 0.5 |
| CN(C)c1ccc(/C=N/O)cc1 | > 24.6 |
| O=C(Nc1cccc(Cl)c1)C1=CC=CN2CCS(=O)(=O)N=C12 | 7.1 (≈ 21 µM) |
| Cc1ccc(Cl)cc1NC(=O)COC(=O)CCN1C(=O)C2CC=CCC2C1=O (stereo not given) | > 60.7 |
| COc1ccccc1C1NC(=O)CCC1[N+](=O)[O-] (stereo not given) | > 37.5 |
| Cc1cc(Cl)ccc1C(=O)C1CCCN(C(=O)c2ccoc2)C1 (stereo not given) | 35.7 (≈ 108 µM) |
| Cc1cc(C)cc(NC(=O)Nc2ccc(N3CCCCC3)cc2)c1 | 0.3 (≈ 0.928 µM) |
| O=S(=O)(c1cc(Cl)ccc1Cl)N1CCN2CCCC2C1 (stereo not given) | 47.5 (≈ 142 µM) |
| CN(C)C(=O)c1cc(C(=O)c2ccccc2F)c[nH]1 | 38.9 (≈ 149 µM) |
| CSc1nc2sc3c(c2c(=S)[nH]1)CC(C)(C)OC3 | 10.6 (≈ 35.5 µM) |
| COc1cc(C(=O)Nc2cc(OC)c(OC)c(OC)c2)ccc1OCc1c(C)noc1C | 2.9 (≈ 6.55 µM) |

| Compound | solubility kinetic [µg/mL] |
| --- | --- |
| Cc1occc1C(=O)Nc1c(Cl)cccc1Cl | 37.1 (≈ 137 µM) |
| COc1ccccc1NC(=O)c1cc(=O)[nH]c2ccccc12 | 29.7 (≈ 101 µM) |
| Cc1nc2sc(C(=O)c3ccccc3)c(N)c2c(C)c1C | < 0.3 |
| CC(C)Cc1ccc(S(=O)(=O)Nc2ccccn2)cc1 | 31.7 (≈ 109 µM) |
| COc1cccc(C(=O)NC2CCCc3ccccc32)c1 (stereo not given) | 7.8 (≈ 27.7 µM) |
| COc1ccc(C(=O)Nc2cccc3ccccc23)cc1 | 1.1 (≈ 3.97 µM) |
| COC(=O)C(NC(=O)c1ccccc1C(=O)O)c1ccc2ccccc2c1 (stereo not given) | > 54.5 |
| COCCOC(=O)C1=C(C)NC(=O)NC1c1ccco1 (stereo not given) | > 42 |
| CC(=O)N(C)c1ccc(NC(=S)NCC(C)C)cc1 | > 41.9 |
| Cc1cc(C)c2nc(N3CCOCC3)c(C#N)cc2c1 | 0.2 (≈ 0.748 µM) |
| CCS(=O)(=O)N1CCC(C(=O)Oc2ccccc2Cl)CC1 | 46 (≈ 139 µM) |
| Nc1ccc2nc(-c3ccccc3)c(-c3ccccc3)nc2c1 | 25.7 (≈ 86.4 µM) |
| CC(C)(C)c1ccc(C(=O)N2CCN(c3ncccn3)CC2)cc1 | 9.6 (≈ 29.6 µM) |
| COc1cc2[nH]c(C(=O)NCC3CCCO3)cc2c(OC)c1OC (stereo not given) | > 50.2 |
| COc1ccc(-c2nc3ccccc3nc2-c2ccccc2)cc1OC | 11 (≈ 32.1 µM) |
| CCOc1ccc(C(C)=O)cc1COc1cccnc1[N+](=O)[O-] | 6 (≈ 19 µM) |
| COCCOC(=O)C1=C(C)NC(=O)NC1c1cccc(F)c1 (stereo not given) | > 46.2 |
| COc1ccc(Cl)cc1C(=O)NCC(c1ccco1)N(C)C (stereo not given) | 45.1 (≈ 140 µM) |
| Cc1cccc(NCc2ccc(Br)cc2)n1 | 12 (≈ 43.3 µM) |
| COc1ccc2oc(=O)c(C(=O)Nc3cccc(C(C)=O)c3)cc2c1 | < 0.7 |
| N#Cc1cccc(NC(=O)COC(=O)c2ccc[n+]([O-])c2)c1 | > 44.6 |
| Cc1ccc(NC(=O)COc2ccc(N(C)C(=O)C(C)(C)C)cc2)cc1S(=O)(=O)N1CCCCC1 | 6.7 (≈ 13.4 µM) |
| CP(=O)(O)CN1CCCCC1 | 24.9 (≈ 141 µM) |
| O=[N+]([O-])c1cccc(NC(=S)N2CCc3ccccc3C2)c1 | 1.3 (≈ 4.15 µM) |

| Compound | solubility kinetic [µg/mL] |
| --- | --- |
| O=C(CCc1ccccc1)NC(=S)Nc1ccc2c(c1)C(=O)OC2 | < 0.4 |
| COc1ccc(NC(=O)CCSc2nc(C)cs2)cc1 | > 46.3 |
| CC(=O)N/C(=N/c1nc(C)cc(C)n1)Nc1cccc(C)c1 | 22.2 (≈ 74.7 µM) |
| O=C(Nc1cc(Cl)ccc1Cl)C1CCCO1 (stereo not given) | 28.9 (≈ 111 µM) |
| O=C(CN1CCCCCC1)Nc1ccc([N+](=O)[O-])cc1Cl | 1.1 (≈ 3.53 µM) |
| COC(=O)Nc1ccc(S(=O)(=O)N2CCC(C(=O)NCc3ccc4c(c3)OCO4)CC2)cc1 | 4 (≈ 8.41 µM) |
| C=CCn1c(=S)sc2c(=O)[nH]cnc21 | > 33.8 |
| CC(=O)Nc1ccc(NC(=O)CC23CC4CC(CC(C4)C2)C3)cc1 | 21.3 (≈ 65.2 µM) |
| Cc1ccc2[nH]c(C(=O)N3CCN(C=O)CC3)cc2c1 | > 40.7 |
| C=CCNc1nc(NCc2ccccc2)nc(OCC)n1 | 36.6 (≈ 128 µM) |
| CC(C)(C)NC(=O)CN(C(=O)C(=O)Nc1ccc2c(c1)OCCO2)C1CC1 | > 56.3 |
| O=C(NCCN1CCOCC1)c1cc(-c2ccc(F)cc2)nc2ccccc12 | 23.8 (≈ 62.7 µM) |
| CN1CCN2c3ncccc3Cc3ccccc3[C@@H]2C1 | 30.2 (≈ 114 µM) |
| O=C(Cc1ccc(F)cc1)N1CCN=C1SCc1cccc([N+](=O)[O-])c1 | 9.4 (≈ 25.2 µM) |
| COc1cc2sc(C)nc2cc1C | 4.8 (≈ 24.8 µM) |
| O=c1nccc(N/N=C/c2cccc(O)c2)[nH]1 | > 34.5 |
| Cc1csc(NC(=O)c2cc(=O)[nH]c3ccccc23)n1 | 10.5 (≈ 36.8 µM) |
| Nc1ncnc(Oc2ccccc2F)c1[N+](=O)[O-] | 34.3 (≈ 137 µM) |
| O=C(NCC1CCCCC1)c1cccc([N+](=O)[O-])c1 | 20.2 (≈ 77 µM) |
| Cc1ccc(CSc2nsc(C)c2C#N)cc1 | 3.3 (≈ 12.7 µM) |
| CN(C)c1ccc(Nc2ccc([N+](=O)[O-])cn2)cc1 | 1 (≈ 3.87 µM) |
| O=C(O)CN1C(=O)C(=O)N(Cc2ccc(C(F)(F)F)cc2)C1=O | > 49.5 |
| Cc1nnc2c(N3CCN(CCO)CC3)nc3ccccc3n12 | > 46.9 |
| CC(=O)N(C)c1ccc(N=Cc2c(O)ccc3ccccc23)cc1 | > 47.8 |
